Experimental findings from PubChem BioAssay AID1919 (The Scripps Research Institute Molecular Screening Center, 2009) are described below.

Each structure is given as a SMILES string. Active and inactive are the calls of the source.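 Rule for the calls: active = IC50 against the VIM-2 bacterial beta-lactamase enzyme at or below a set limit; inactive = IC50 above that set limit.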 A value given as a limit tells only on which side of the number the result lay.

One may read the IC50 as the point on the concentration scale where inhibition reaches its midpoint.

The experiment has as its target VIM-2 metallo-beta-lactamase (Pseudomonas aeruginosa) (UniProt Q932Y6). The experiment in a line: VIM-2 metallo-beta-lactamase inhibitor potency, dose response, biochemical, epi-absorbance readout, selective inhibitors (AID 1919). Particulars: purified VIM-2, nitrocefin hydrolysis, epi-absorbance fluorescence.
For the compound `CCCc1cc(=O)oc2c3c(cc(OCC(=O)N[C@@H](C)C(=O)O)c12)OC(C)(C)CC3`, the IC50 entry was “inactive”. Regarding `Cc1cc(C(=O)OCC(=O)NC(=O)c2cccn2C)c2ccccc2n1`, the IC50 is > 59.6 µM (inactive).

For `O=C(O)C(NC(=O)c1ccccc1)=C(Cl)Cl`, the IC50 entry was “inactive”. The same measure for `CCCCn1c(-c2nn(C)cc2Cl)n[nH]c1=S`: 4.2 µM; for `S=c1[nH]nc(-c2ccccc2)n1C1C=CCCC1` (centres undefined): “inactive”; for `CC(C)(C)C(=O)Nc1nnc(CSCc2ccccc2F)s1`: 4.99 µM. As to `CC(C)(C)c1ccc(COc2ccsc2C(=O)O)cc1`, the IC50 result is “inactive”. As for `CC1=C(C(=O)O)N2C(=O)C(NC(=O)c3nn(C)cc3[N+](=O)[O-])C2SC1` (centres undefined), the IC50 entry is “inactive”. With `CC1CCCC(C)N1C(=O)CSc1nnc(NC(=O)c2cccs2)s1` (centres undefined), the IC50 entry was “inactive”. The result for `O=C(CSc1nnc(NC(=O)c2ccccc2)s1)NCc1ccco1` reads > 59.6 µM (inactive); that for `CC(C)(C)CC(=O)Nc1nnc(SCC(=O)NCc2cccs2)s1`, “inactive”. For `O=c1[nH]c(SCc2n[nH]c(=S)n2-c2ccccc2)nc2sc3c(c12)CCC3`, the IC50 is > 59.6 µM (inactive). On to `O=C(O)c1[nH]c2ccc(Br)cc2c1CCN1C(=O)c2cccc([N+](=O)[O-])c2C1=O`, for which the IC50 is 1.98 µM.

Consider `CCc1cc(=O)oc2c(C)c(OCC(=O)N3CCC[C@@H]3C(=O)O)ccc12`, for which the IC50 entry is “inactive”. For `Fc1ccccc1-c1n[nH]c(=S)n1Cc1ccccc1`, the IC50 result was “inactive”. On to `Cc1c(C)c2c(OCC(=O)N3CCC[C@H]3C(=O)O)cc3c(c2oc1=O)CCC(C)(C)O3`, for which the IC50 was 1.73 µM. As for `CCOC(=O)N=S(N)(=O)c1ccccc1` (centres undefined), the IC50 entry is “inactive”. Take `O=C(CCN1C(=O)/C(=C/c2ccccc2F)SC1=S)NCCCn1ccnc1`: the IC50 was 6.45 µM.

`O=C(CSc1nnc(NC(=O)c2cccc(F)c2)s1)NCc1ccco1`: the IC50 is > 59.6 µM (inactive). With `O=C(O)c1ccccc1C(=O)c1cccc2ccccc12`, the IC50 result is “inactive”. Take `O=C(c1ccco1)N1N=C(c2ccc(Cl)cc2)CC1c1ccco1` (centres undefined): the IC50 is 7.31 µM. Take `O=[N+]([O-])c1ccc(-c2ccccc2)c([As](=O)(O)O)c1`: the IC50 was 0.748 µM. As to `Cn1c(-c2sccc2OCc2ccccc2)n[nH]c1=S`, the IC50 was 5.45 µM. On to `CCCC(=O)Nc1nnc(SCC(=O)NCc2cccs2)s1`, for which the IC50 result was “inactive”.

With `Cc1cccc(-n2c(C)n[nH]c2=S)c1C`, the IC50 is > 59.6 µM (inactive).

In the case of `Cc1cc(OCC(=O)N2CCC[C@@H]2C(=O)O)c2c(C)c(C)c(=O)oc2c1`, the IC50 result was “inactive”. For the compound `COc1ccc(-c2cc(C(F)(F)F)nc(N3CCN(C)CC3)n2)cc1`, the IC50 was > 59.6 µM (inactive). On to `O=C1Nc2cc(C(=O)N3CCC(N4CCCCC4)CC3)ccc2S/C1=C\c1ccccc1`, for which the IC50 entry was “inactive”. Take `COc1ccccc1-n1c(-c2ccco2)n[nH]c1=S`: the IC50 entry was “inactive”. With `O=C(O)c1c(C(=O)O)c(-c2ccc(Br)cc2)n2c1CSC2`, the IC50 was 4.78 µM.

As to `S=c1[nH]nc(-c2ccco2)n1Cc1ccccc1`, the IC50 is 6.48 µM.

On to `CSC[C@H](NC(=O)COc1cc2c(c3oc(=O)c(C)c(C)c13)CCC(C)(C)O2)C(=O)O`, for which the IC50 entry was “inactive”.

`CC1CCCCC1n1c(-c2cccnc2)n[nH]c1=S` (centres undefined): the IC50 entry is “inactive”. Consider `O=C(CSc1nnc(NC(=O)c2ccccc2[N+](=O)[O-])s1)NCc1ccco1`, for which the IC50 is 6.93 µM.

As to `S=c1[nH]nc(-c2cccs2)n1C1CCCCC1`, the IC50 is 6.69 µM.

For `CCCn1c(C(C)C)n[nH]c1=S`, the IC50 result is “inactive”. The same measure for `S=c1[nH]nc(-c2ccccc2)n1CC1CCCO1` (centres undefined): “inactive”. For `O=Cc1c(NCc2ccc(Cl)cc2)c2ccccc2[nH]c1=O`, the IC50 result is “inactive”. As for `COc1cccc(-n2c(CNC(=O)OC(C)(C)C)n[nH]c2=S)c1`, the IC50 entry was “inactive”.
